From US20230002400A1, “AMORPHOUS FORM OF NITROGEN-CONTAINING TRICYCLIC COMPOUND AND USE THEREOF” (SUNSHINE LAKE PHARMA CO., LTD., priority 2019, published 2023)

Legend:
[1] = Pharmacokinetic test in Beagle dogs, oral capsules; type: in vivo; details: dog, plasma, male Beagle dogs, 5 mg/kg orally
Protocol: The amorphous form of compound having Formula (I) named 2-((5-cyclopropyl-3-(2,6-di chl orophenyl)i soxazol-4-yl)methoxy)-10H-spiro[b enzo[6,7]oxepino[3,2-b]pyridine-11,1′-cyclopropane]-7-carboxylic acid was filled into capsules, which was for oral administration.
8-12 kg Male Beagle dogs were given 5 mg/kg test sample orally, with 3 animals in each group. Blood was taken at time points of 0.25, 0.5, 1.0, 2.0, 4.0, 6.0, 8.0, 12 and 24 h. Standard curve was plotted based on concentrations of the samples in a suitable range, the concentration of the test sample in the plasma sample was measured and quantified by AB SCIEX API4000 LC-MS/MS at MRM mode. Pharmacokinetic parameters were calculated according to drug concentration -time curve using a noncompartmental model by WinNonLin 6.3 software.

[2] = Stability test: high humidity test (25° C., RH 90% ±5%); type: physicochemical; details: for Appearance / Purity (%): High humidity 25° C., RH 90% ±5%
Protocol: (2) High humidity test: A batch of the test sample was taken into the flat weighing bottle, divided into <5 mm thick thin layer. The sample was placed at 25° C. and RH for 90% ±5% for 30 days. The sample was then taken on days 5, 10, and 30, and the change of the sample's color was observed. The purity of the sample was detected by HPLC, and the structure of the sample was analyzed by X-ray powder diffraction, the change of X-ray powder diffraction in high humidity test was substantially shown in FIG. 5.

[3] = Stability test: high temperature test (60° C.); type: physicochemical
Protocol: (1) High temperature test: A batch of the test sample was taken into a flat weighing bottle, divided into ≤5 mm thick thin layer. The sample was placed at 60° C. for 30 days. The sample was then taken on days 5, 10, and 30, and the change of the sample's color was observed. The purity of the sample was detected by HPLC, and the structure of the sample was analyzed by X-ray powder diffraction, the change of X-ray powder diffraction in high temperature test was substantially shown in FIG. 4.

[4] = Stability test: light test (light box with UV); type: physicochemical; details: for Appearance / Purity (%): Light (with UV)
Protocol: (3) Light test: A batch of the test sample was taken into the flat weighing bottle, divided into ≤5 mm thick thin layer. The sample was placed in an opened light box (with UV) at the illuminance 4500±5001x, UV light ≥0.7w/m2 for 30 days. The sample was then taken on days 5, 13, and 30, and the change of the sample's color was observed. The purity of the sample was detected by HPLC, and the structure of the sample was analyzed by X-ray powder diffraction, the change of X-ray powder diffraction in light test was substantially shown in FIG. 6.

[5] = Hygroscopicity test by dynamic moisture adsorption device; type: physicochemical; details: relative humidity of 80%
Protocol: The description of the hygroscopic feature and the definition of the hygroscopic weight gain (Chinese Pharmacopoeia 2015 edition, Appendix 9103 Guidelines for Drug Hygroscopicity Tests, experimental conditions: 25° C. ±1° C., 80% ±2% relative humidity) are as described in the table below.
An appropriate amount of the test sample was taken and the hygroscopicity of the test sample was tested by dynamic moisture adsorption device. […] That is, the amorphous form of the invention is not easily deliquescent under the influence of high humidity.

Q: For O=C(O)c1ccc2c(c1)Oc1ccc(OCc3c(-c4c(Cl)cccc4Cl)noc3C3CC3)nc1C1(CC1)C2 [The amorphous form, 2-((5-cyclopropyl-3-(2,6-dichlorophenyl)isoxazol-4-yl)methoxy)-10H-spiro[benzo[6,7]oxepino[3,2-b]pyridine-11,1′-cyclopropane]-7-carboxylic acid], which AUC(0-t) [1] is on record?
A: 765 ng·h/mL

Q: And the Cmax [1]?
A: 268 ng/mL

Q: What about the Tmax [1] of the same compound?
A: 2 h

Q: And the Appearance ([2]; 5 Days)?
A: White

Q: What about the “Purity (%)” value ([2]; 5 Days, HPLC) of the same compound?
A: 99.64%

Q: What about the Appearance ([2]; 10 Days) of the same compound?
A: White

Q: What about the “Purity (%)” value ([2]; 10 Days, HPLC) of the same compound?
A: 99.61%

Q: And the Appearance ([2]; 30 Days)?
A: White

Q: What about the “Purity (%)” value ([2]; 30 Days, HPLC) of the same compound?
A: 99.63%

Q: And the “changes of appearance, chemical purity and crystal form” value (shortened to “changes of appearance”) ([2]; high humidity, up to 30 days, HPLC, XRPD)?
A: no obvious changes

Q: And the Appearance ([3]; 0 Day (start of stability test))?
A: White

Q: And the “Purity (%)” value ([3]; 0 Day (start of stability test), HPLC)?
A: 99.66%

Q: And the Appearance ([3]; High temperature 60° C., 5 Days)?
A: White

Q: What about the “Purity (%)” value ([3]; High temperature 60° C., 5 Days, HPLC) of the same compound?
A: 99.65%

Q: And the Appearance ([3]; High temperature 60° C., 10 Days)?
A: White

Q: And the “Purity (%)” value ([3]; High temperature 60° C., 10 Days, HPLC)?
A: 99.48%

Q: And the Appearance ([3]; High temperature 60° C., 30 Days)?
A: White

Q: And the “Purity (%)” value ([3]; High temperature 60° C., 30 Days, HPLC)?
A: 99.60%

Q: And the “changes of appearance” value ([3]; high temperature, up to 30 days, HPLC, XRPD)?
A: no obvious changes

Q: And the Appearance ([4]; 5 Days)?
A: White

Q: What about the “Purity (%)” value ([4]; 5 Days, HPLC) of the same compound?
A: 99.62%

Q: What about the Appearance ([4]; 13 days) of the same compound?
A: White

Q: What about the “Purity (%)” value ([4]; 13 days, HPLC) of the same compound?
A: 99.63%

Q: And the Appearance ([4]; 30 days)?
A: White

Q: And the “Purity (%)” value ([4]; 30 days, HPLC)?
A: 99.57%

Q: And the “changes of appearance” value ([4]; light, up to 30 days, HPLC, XRPD)?
A: no obvious changes

Q: And the hygroscopic weight gain ([5]; after equilibrium)?
A: less than 2%

Q: What about the hygroscopic feature ([5]; criterion for the hygroscopic weight gain) of the same compound?
A: slightly hygroscopic
